In brackets after ≈: the same amount, converted by molar mass. Each block holds one molecule with its values, some of them ahead of it.
How the values were obtained:
Experiment in all cases: ≥ marks a high value that may be exact or a test limit, other limits are often not marked, values filed in µg/mL are converted to µM
[1] = tested on: Escherichia coli LMG 15862
[2] = tested on: Pseudomonas aeruginosa LMG 6395
[3] = tested on: Acinetobacter baumannii LMG 01041
[4] = tested on: Klebsiella aerogenes LMG 02094
[5] = tested on: Klebsiella pneumoniae LMG 20218
[6] = tested on: Staphylococcus aureus ATCC 29213
[7] = tested on: Acinetobacter baumannii ATCC 19606
Escherichia coli 780 = tested on: Escherichia coli 780
[8] = tested on: Bacillus subtilis ATCC 23857
[9] = tested on: Acinetobacter baumannii 97830
[10] = tested on: Klebsiella pneumoniae ATCC 700603
[11] = tested on: Staphylococcus epidermidis ATCC 12228
[12] = tested on: Pseudomonas aeruginosa ATCC 9027
[13] = tested on: Pseudomonas aeruginosa 50
[14] = tested on: Acinetobacter baumannii 9931
[15] = tested on: Pseudomonas aeruginosa 73
[16] = tested on: Pseudomonas aeruginosa ATCC 27853
[17] = tested on: Staphylococcus aureus 113
Staphylococcus aureus 75 = tested on: Staphylococcus aureus 75
Escherichia coli 804 = tested on: Escherichia coli 804
[18] = tested on: Bifidobacterium longum subsp. infantis
Staphylococcus aureus = tested on: Staphylococcus aureus
Escherichia coli = tested on: Escherichia coli
Fusarium graminearum = tested on: Fusarium graminearum
Aeromonas hydrophila = tested on: Aeromonas hydrophila
Vibrio harveyi = tested on: Vibrio harveyi
[19] = tested on: Escherichia coli NCTC 10418
[20] = tested on: Staphylococcus aureus NCTC 12981
Yersinia enterocolitica = tested on: Yersinia enterocolitica
[21] = tested on: Escherichia coli ATCC 25922
[22] = tested on: Staphylococcus aureus ATCC 43300
Salmonella sp. = tested on: Salmonella sp.
[23] = tested on: Salmonella enterica subsp. enterica serovar Enteritidis
[24] = tested on: Cryptococcus neoformans ATCC 32264
[25] = tested on: Pseudomonas aeruginosa H547
[26] = tested on: Pseudomonas aeruginosa Z61
[27] = tested on: Pseudomonas aeruginosa H744
[28] = tested on: Pseudomonas aeruginosa K799
Escherichia coli UB1005 = tested on: Escherichia coli UB1005
[29] = tested on: Salmonella enterica subsp. enterica serovar Typhimurium ATCC 14028s
[30] = tested on: Burkholderia cepacia ATCC 25416

Compound: CC(C)C[C@H](NC(=O)[C@H](Cc1c[nH]c2ccccc12)NC(=O)[C@H](CCCN=C(N)N)NC(=O)[C@H](Cc1c[nH]c2ccccc12)NC(=O)[C@H](Cc1c[nH]c2ccccc12)NC(=O)[C@H](Cc1c[nH]c2ccccc12)NC(=O)[C@H](CCCN=C(N)N)NC(=O)[C@H](Cc1c[nH]c2ccccc12)NC(=O)[C@@H](N)CC(C)C)C(N)=O [LWRWWWRWL]
- MIC [6]: 4 µM (≈ 5.95 µg/mL)
- MIC [7]: 16 µM (≈ 23.8 µg/mL)
- MIC (Escherichia coli 780): 16 µM (≈ 23.8 µg/mL)
- MIC [8]: 4 µM (≈ 5.95 µg/mL)
- MIC [9]: 8 µM (≈ 11.9 µg/mL)
- MIC [10]: 8 µM (≈ 11.9 µg/mL)
- MIC [11]: 4 µM (≈ 5.95 µg/mL)
- MIC [12]: 32 µM (≈ 47.6 µg/mL)
- MIC [13]: ≥ 32 µM
- MIC [14]: 16 µM (≈ 23.8 µg/mL)
- MIC [15]: ≥ 64 µM
- MIC [16]: 128 µM (≈ 190 µg/mL)
- MIC [17]: 4 µM (≈ 5.95 µg/mL)
- MIC (Staphylococcus aureus 75): 4 µM (≈ 5.95 µg/mL)
- MIC (Escherichia coli 804): ≥ 32 µM

Compound: CC[C@H](C)[C@H](NC(=O)[C@H](C)NC(=O)[C@H](CCCN=C(N)N)NC(=O)[C@H](Cc1cnc[nH]1)NC(=O)[C@@H](NC(=O)[C@H](C)NC(=O)[C@H](CCCN=C(N)N)NC(=O)[C@@H](NC(=O)CNC(=O)[C@H](Cc1cnc[nH]1)NC(=O)[C@H](CO)NC(=O)[C@@H](NC(=O)[C@H](Cc1c[nH]c2ccccc12)NC(=O)CNC(=O)[C@@H](NC(=O)[C@@H](NC(=O)[C@H](Cc1cnc[nH]1)NC(=O)[C@H](Cc1cnc[nH]1)NC(=O)[C@@H](NC(=O)[C@@H](N)Cc1ccccc1)[C@@H](C)CC)[C@@H](C)CC)[C@@H](C)CC)[C@@H](C)CC)C(C)C)[C@@H](C)CC)C(=O)N[C@@H](Cc1cnc[nH]1)C(N)=O [FIHHIIGWISHGVRAIHRAIH]
- MIC (Aeromonas hydrophila): 16 µM (≈ 39.5 µg/mL)
- MIC (Vibrio harveyi): 8 µM (≈ 19.8 µg/mL)

Compound: CC[C@H](C)[C@H](NC(=O)[C@H](CCCCN)NC(=O)[C@@H](NC(=O)[C@H](Cc1c[nH]c2ccccc12)NC(=O)[C@H](Cc1ccccc1)NC(=O)[C@H](CCC(N)=O)NC(=O)[C@H](CC(N)=O)NC(=O)[C@H](CCCN=C(N)N)NC(=O)[C@H](CCCN=C(N)N)NC(=O)[C@H](CCSC)NC(=O)[C@H](CCCCN)NC(=O)[C@H](Cc1c[nH]c2ccccc12)NC(=O)[C@H](CCCCN)NC(=O)[C@@H](N)CCCCN)[C@@H](C)CC)C(=O)N[C@@H](CCC(N)=O)C(=O)N[C@@H](CCCN=C(N)N)C(N)=O [KKWKMRRNQFWIKIQR]
- MIC [6]: > 50 µM
- MIC (Yersinia enterocolitica): ≥ 50 µM
- MIC [21]: > 50 µM
- MIC [22]: > 50 µM
- MIC (Salmonella sp.): 25 µM (≈ 56.1 µg/mL)
- MIC [16]: > 50 µM
- MIC (Escherichia coli): 25 µM (≈ 56.1 µg/mL)
- MIC [23]: 25 µM (≈ 56.1 µg/mL)

Compound: CC[C@H](C)[C@H](NC(=O)CNC(=O)[C@@H](NC(=O)[C@H](CCCCN)NC(=O)[C@H](CCCCN)NC(=O)[C@H](Cc1ccccc1)NC(=O)[C@H](CCCCN)NC(=O)[C@H](Cc1c[nH]c2ccccc12)NC(=O)[C@@H](N)CCCCN)[C@@H](C)CC)C(=O)NCC(=O)N[C@@H](C)C(=O)N[C@H](C(=O)N[C@@H](CC(C)C)C(=O)N[C@@H](CCCCN)C(=O)N[C@H](C(=O)N[C@@H](CC(C)C)C(=O)N[C@H](C(=O)N[C@H](C(=O)NCC(=O)N[C@@H](CC(C)C)C(=O)N1CCC[C@H]1C(=O)N[C@@H](C)C(=O)N[C@@H](CC(C)C)C(=O)N[C@@H](CCCCN)C(=O)N[C@@H](CC(C)C)C(=O)N[C@H](C(=O)N[C@@H](CC(C)C)C(=O)N[C@@H](CCCCN)C(=O)O)[C@@H](C)O)[C@@H](C)O)[C@@H](C)O)C(C)C)C(C)C [KWKFKKIGIGAVLKVLTTGLPALKLTLK]
- MIC [25]: 0.652 µM (≈ 2 µg/mL)
- MIC [26]: 1.63 µM (≈ 5 µg/mL)
- MIC [27]: 0.326 µM (≈ 1 µg/mL)
- MIC [28]: 1.96 µM (≈ 6 µg/mL)
- MIC (Escherichia coli UB1005): 0.652 µM (≈ 2 µg/mL)
- MIC [29]: 1.3 µM (≈ 4 µg/mL)
- MIC [30]: 20.9 µM (≈ 64 µg/mL)

More lines, now with the values ahead:

- MIC [1]: 16 µM (≈ 24.8 µg/mL)
- MIC [2]: 16 µM (≈ 24.8 µg/mL)
- MIC [3]: ≥ 256 µM
- MIC [4]: ≥ 256 µM
- MIC [5]: ≥ 256 µM
Compound: CC[C@H](C)[C@H](NC(=O)[C@H](CCCN=C(N)N)NC(=O)[C@H](CCCCN)NC(=O)[C@H](CCCN=C(N)N)NC(=O)[C@@H](NC(=O)[C@@H](N)CCCN=C(N)N)[C@@H](C)CC)C(=O)N[C@@H](CCCCN)C(=O)N[C@@H](CCCCN)C(=O)N[C@@H](Cc1c[nH]c2ccccc12)C(=O)N[C@@H](CC(C)C)C(=O)N[C@@H](CCCN=C(N)N)C(N)=O [RIRKRIKKWLR]

- MIC [18]: ≥ 3660 µM
- MIC (Staphylococcus aureus): 3660 µM (≈ 3000 µg/mL)
- MIC (Escherichia coli): 3660 µM (≈ 3000 µg/mL)
Compound: CC(C)C[C@H](NC(=O)[C@H](CC(N)=O)NC(=O)[C@@H]1CCCN1C(=O)[C@@H](N)CCCN=C(N)N)C(=O)N[C@@H](Cc1cnc[nH]1)C(=O)N1CCC[C@H]1C(=O)N[C@@H](CO)C(=O)O [RPNLHPS]

- MIC (Fusarium graminearum): 20 µM (≈ 39.8 µg/mL)
Compound: CSCC[C@H](NC(=O)[C@H](Cc1cnc[nH]1)NC(=O)[C@H](CCCCN)NC(=O)CNC(=O)[C@H](CC(N)=O)NC(=O)[C@H](CCCN=C(N)N)NC(=O)[C@@H](NC(=O)[C@H](Cc1cnc[nH]1)NC(=O)[C@H](CS)NC(=O)[C@H](C)NC(=O)CNC(=O)[C@H](Cc1cnc[nH]1)NC(=O)[C@@H](NC(=O)[C@H](C)NC(=O)CNC(=O)[C@H](CCC(=O)O)NC(=O)[C@@H](N)Cc1c[nH]c2ccccc12)C(C)C)C(C)C)C(=O)N[C@@H](CS)C(=O)O [WEGAVHGACHVRNGKHMC]

- MIC [19]: ≥ 130 µM
- MIC [20]: ≥ 130 µM
Compound: NC(=O)CC[C@H](NC(=O)[C@H](CCCN=C(N)N)NC(=O)[C@H](CCCN=C(N)N)NC(=O)[C@@H](N)Cc1c[nH]c2ccccc12)C(=O)N[C@@H](CCCN=C(N)N)C(=O)N[C@@H](Cc1c[nH]c2ccccc12)C(N)=O [WRRQRW]

- MIC [24]: ≥ 100 µM
Compound: NCCCC[C@H](NC(=O)[C@H](CCCCN)NC(=O)[C@H](CCC(N)=O)NC(=O)[C@@H](N)CCCN=C(N)N)C(N)=O [RQKK]

From DBAASP
